Each structure is given as a SMILES string. Active and inactive are the calls of the source. How the calls were made is not given here.

The data set relates to CCRIS mutagenicity, Ames/micronucleus/aberration tests. Description: CCRIS mutagenicity studies.
[1] abbreviates: Test System: AMES SALMONELLA TYPHIMURIUM, Strain/Indicator: TA98, Metabolic Activation: NONE, Method: PREINCUBATION
The mark [2] stands for this setting: Test System: AMES SALMONELLA TYPHIMURIUM, Strain/Indicator: TA100, Metabolic Activation: NONE, Method: PREINCUBATION
[3] abbreviates: Test System: AMES SALMONELLA TYPHIMURIUM, Strain/Indicator: TA100, Metabolic Activation: NONE, Method: STANDARD PLATE.
Where [4] appears, read: Test System: AMES SALMONELLA TYPHIMURIUM, Strain/Indicator: TA100, Metabolic Activation: RAT, LIVER, S-9, AROCLOR 1254, Method: STANDARD PLATE.

As for `Nc1ccc2ccccc2c1`, the mutagenic call (Test System: AMES SALMONELLA TYPHIMURIUM, Strain/Indicator: TA98(1,8-DNP6), Metabolic Activation: PLANT CELLS, Method: PREINCUBATION) was “inactive; negative”; the mutagenic call (Test System: AMES SALMONELLA TYPHIMURIUM, Strain/Indicator: TA98, Metabolic Activation: HAMSTER, LIVER, S-9, AROCLOR 1254 (30%), Method: PREINCUBATION) is “active; positive”; the mutagenic call (Test System: AMES SALMONELLA TYPHIMURIUM, Strain/Indicator: TA98, Metabolic Activation: HUMAN, RED BLOOD CELL, CYTOSOL, Method: PREINCUBATION) was “active; positive”; the mutagenic call (Test System: AMES SALMONELLA TYPHIMURIUM, Strain/Indicator: TA98, Metabolic Activation: MOUSE, LIVER, S-9, PHENOBARBITAL AND BETA-NAPHTHOFLAVONE, Method: STANDARD PLATE) was “active; positive”; the mutagenic call (Test System: AMES SALMONELLA TYPHIMURIUM, Strain/Indicator: TA98, Metabolic Activation: MOUSE, LIVER, S-9, PHENOBARBITAL, BETA-NAPHTHOFLAVONE, ISOSAFROLE, ETHANOL, PREGNENOLONE AND 16ALPHA-CARBONITRILE, Method: STANDARD PLATE) was “active; positive”; the mutagenic call under setting [1] is “inactive; negative”. Moreover, the mutagenic call reads like this: (Test System: AMES SALMONELLA TYPHIMURIUM, Strain/Indicator: TA98, Metabolic Activation: NONE, Method: STANDARD PLATE) “inactive; negative”; (Test System: AMES SALMONELLA TYPHIMURIUM, Strain/Indicator: TA98, Metabolic Activation: PLANT CELLS, Method: PREINCUBATION) “inactive; negative”; (Test System: AMES SALMONELLA TYPHIMURIUM, Strain/Indicator: TA98, Metabolic Activation: RAT, LIVER, S-9, AROCLOR 1254 (2%), Method: STANDARD PLATE) “active; positive”; (Test System: AMES SALMONELLA TYPHIMURIUM, Strain/Indicator: TA98, Metabolic Activation: RAT, LIVER, S-9, AROCLOR 1254 (30%), Method: PREINCUBATION) “active; positive”; (Test System: AMES SALMONELLA TYPHIMURIUM, Strain/Indicator: TA98, Metabolic Activation: RAT, LIVER, S-9, AROCLOR 1254, Method: STANDARD PLATE) “inactive; negative”; (Test System: AMES SALMONELLA TYPHIMURIUM, Strain/Indicator: TA98, Metabolic Activation: RAT, LIVER, S-9, KANECHLOR 500 OR PHENOBARBITAL AND BETA-NAPHTHOFLAVONE, Method: PREINCUBATION) “active; positive”. Moreover, the mutagenic call (Test System: AMES SALMONELLA TYPHIMURIUM, Strain/Indicator: TA100, Metabolic Activation: HAMSTER, LIVER, S-9, AROCLOR 1254 (30%), Method: PREINCUBATION) was “active; positive”; the mutagenic call under setting [2] was “inactive; negative”; the mutagenic call under setting [3] was “inactive; negative”; the mutagenic call (Test System: AMES SALMONELLA TYPHIMURIUM, Strain/Indicator: TA100, Metabolic Activation: RAT, LIVER, S-9, AROCLOR 1254 (10%) (WITHOUT ADDED COFACTORS), Method: STANDARD PLATE) was “inactive; negative”; the mutagenic call (Test System: AMES SALMONELLA TYPHIMURIUM, Strain/Indicator: TA100, Metabolic Activation: RAT, LIVER, S-9, AROCLOR 1254 (30%), Method: PREINCUBATION) is “active; positive”; the mutagenic call under setting [4] was “active; positive”. For the same molecule, the mutagenic call (Test System: AMES SALMONELLA TYPHIMURIUM, Strain/Indicator: TA100, Metabolic Activation: RAT, LIVER, S-9, AROCLOR (10%), Method: STANDARD PLATE) was “active; positive”; the mutagenic call (Test System: AMES SALMONELLA TYPHIMURIUM, Strain/Indicator: TA100, Metabolic Activation: RAT, LIVER, S-9, KANECHLOR 500 OR PHENOBARBITAL AND BETA-NAPHTHOFLAVONE, Method: PREINCUBATION) was “active; positive”; the mutagenic call (Test System: AMES SALMONELLA TYPHIMURIUM, Strain/Indicator: TA100, Metabolic Activation: RAT, LIVER, S-9, KC500 OR PHENOBARBITAL, Method: LIQUID SUSPENSION) is “active; positive”; the mutagenic call (Test System: AMES SALMONELLA TYPHIMURIUM, Strain/Indicator: TA100, Metabolic Activation: RAT, LIVER, S-9, TCDD, Method: STANDARD PLATE) is “active; positive”; the mutagenic call (Test System: AMES SALMONELLA TYPHIMURIUM, Strain/Indicator: TA100, Metabolic Activation: S-9, Method: FLUCTUATION TEST) is “active; positive”; the mutagenic call (Test System: AMES SALMONELLA TYPHIMURIUM, Strain/Indicator: TA1535, Metabolic Activation: RAT, LIVER, S-9, AROCLOR 1254, Method: STANDARD PLATE) was “active; positive”. In addition, the mutagenic call was “active; positive” (Test System: AMES SALMONELLA TYPHIMURIUM, Strain/Indicator: TA1535, Metabolic Activation: RAT, LIVER, S-9, AROCLOR (10%), Method: STANDARD PLATE); “active; positive” (Test System: AMES SALMONELLA TYPHIMURIUM, Strain/Indicator: TA1535, Metabolic Activation: RAT, LIVER, S-9, PHENOBARBITAL, Method: STANDARD PLATE); “inactive; negative” (Test System: AMES SALMONELLA TYPHIMURIUM, Strain/Indicator: YG1024, Metabolic Activation: PLANT CELLS, Method: PREINCUBATION); “inactive; negative” (Test System: CHINESE HAMSTER V-79, Strain/Indicator: V-79/6-THIOGUANINE, Metabolic Activation: NONE, Method: SUSPENSION/PLATE); “active; positive” (Test System: CHINESE HAMSTER V-79, Strain/Indicator: V-79/6-THIOGUANINE, Metabolic Activation: RAT, LIVER, S-9, PHENOBARBITAL AND BETA-NAPHTHOFLAVONE, Method: SUSPENSION/PLATE); “inactive; negative” (Test System: E. COLI, Strain/Indicator: WP2 UVRA, Metabolic Activation: HAMSTER, LIVER, S-9, AROCLOR 1254, Method: STANDARD PLATE). In addition, the mutagenic call (Test System: E. COLI, Strain/Indicator: WP2 UVRA, Metabolic Activation: HAMSTER, LIVER, S-9, Method: STANDARD PLATE) was “inactive; negative”; the mutagenic call (Test System: E. COLI, Strain/Indicator: WP2 UVRA, Metabolic Activation: MOUSE, LIVER, S-9, AROCLOR 1254, Method: STANDARD PLATE) is “inactive; negative”; the mutagenic call (Test System: E. COLI, Strain/Indicator: WP2 UVRA, Metabolic Activation: MOUSE, LIVER, S-9, Method: STANDARD PLATE) is “inactive; negative”; the mutagenic call (Test System: E. COLI, Strain/Indicator: WP2 UVRA, Metabolic Activation: NONE, Method: STANDARD PLATE) was “inactive; negative”; the mutagenic call (Test System: E. COLI, Strain/Indicator: WP2 UVRA, Metabolic Activation: RAT, LIVER, S-9, AROCLOR 1254, Method: STANDARD PLATE) was “inactive; negative”; the mutagenic call (Test System: E. COLI, Strain/Indicator: WP2 UVRA, Metabolic Activation: RAT, LIVER, S-9, Method: STANDARD PLATE) was “inactive; negative”.

Consider `COc1ccc(N(CCCl)CCCl)c2oc([N+](=O)[O-])cc12`, for which the mutagenic call is, setting by setting: (Test System: AMES SALMONELLA TYPHIMURIUM, Strain/Indicator: TA100(NR), Metabolic Activation: NONE, Method: STANDARD PLATE) “active; positive”; (Test System: AMES SALMONELLA TYPHIMURIUM, Strain/Indicator: TA100(NR), Metabolic Activation: RAT, LIVER, S-9, AROCLOR 1254, Method: STANDARD PLATE) “active; positive”; under setting [3], “active; positive”; under setting [4], “active; positive”.

Turning to `CC(C)N=C(NC(C)C)OCc1ccc([N+](=O)[O-])cc1`, the mutagenic call runs as follows: under setting [1], “active; positive”; (Test System: AMES SALMONELLA TYPHIMURIUM, Strain/Indicator: TA98, Metabolic Activation: RAT, LIVER, S-9, PCB, Method: PREINCUBATION) “active; positive”; under setting [2], “active; positive”; (Test System: AMES SALMONELLA TYPHIMURIUM, Strain/Indicator: TA100, Metabolic Activation: RAT, LIVER, S-9, PCB, Method: PREINCUBATION) “active; positive”.

With `CCCCCCCC(=O)CCc1ccc(O)c(OC)c1`, the mutagenic call by setting is: under setting [1], “inactive; negative”; (Test System: AMES SALMONELLA TYPHIMURIUM, Strain/Indicator: TA98, Metabolic Activation: RAT LIVER S-9, SODIUM PHENOBARBITAL, Method: PREINCUBATION) “inactive; negative”; under setting [2], “inactive; negative”; (Test System: AMES SALMONELLA TYPHIMURIUM, Strain/Indicator: TA100, Metabolic Activation: RAT LIVER S-9, SODIUM PHENOBARBITAL, Method: PREINCUBATION) “inactive; negative”; (Test System: AMES SALMONELLA TYPHIMURIUM, Strain/Indicator: TA1535, Metabolic Activation: NONE, Method: PREINCUBATION) “inactive; negative”; (Test System: AMES SALMONELLA TYPHIMURIUM, Strain/Indicator: TA1535, Metabolic Activation: RAT LIVER S-9, SODIUM PHENOBARBITAL, Method: PREINCUBATION) “inactive; negative”. For the same molecule, the mutagenic call runs as follows: (Test System: AMES SALMONELLA TYPHIMURIUM, Strain/Indicator: TA1538, Metabolic Activation: NONE, Method: PREINCUBATION) “inactive; negative”; (Test System: AMES SALMONELLA TYPHIMURIUM, Strain/Indicator: TA1538, Metabolic Activation: RAT LIVER S-9, SODIUM PHENOBARBITAL, Method: PREINCUBATION) “inactive; negative”.

(Values after PubChem BioAssay AID1259407 (Chemical Carcinogenesis Research Information System (CCRIS), 2018).)
